{
  "source": "patent US20230226092A1",
  "about": "“CANCER […] ON G[…]” (NuCana plc, priority 2015, published 2023)",
  "system": "primary acute myeloid leukaemia (AML) blasts",
  "test": "In vitro cytotoxicity assay (annexin V apoptosis) in primary acute myeloid leukemia cells",
  "format": "cell-based, human",
  "conditions": "primary AML blasts, CD34+ cells, 48h, annexin V",
  "experimental": "NUC-1031 was assayed for its cytotoxic effects on primary cultures of acute myeloid leukaemia (AML) blasts. LD50 values (the concentration required to kill 50% of the tumour cells in culture) were calculated in respect of NUC-1031 and gemcitabine.\nBone marrow samples were collected in ethylenediaminetetraacetic acid (EDTA) from newly diagnosed, previously untreated, acute myeloid leukemia (AML) patients. AML blasts were enriched by density gradient centrifugation using Histopaque (Sigma, Poole, UK) and were subsequently maintained in Roswell Park Memorial Institute medium (RPMI) supplemented with 10% foetal bovine serum (FBS). Cells were treated with Gemcitabine or NUC-1031 at concentrations between 0.25 µM and 10 µM, and incubated for 48h. All cultures were maintained at 37° C. in a 5% CO2 humidified atmosphere.\nCells were harvested and labelled with CD34-fluorescein isothiocyanate (FITC) (BD Biosciences, Buckingham, UK) and then resuspended in 200 µl of binding buffer containing 4µl of annexin V labelled with allophycocyanin (APC) (eBioscience Ltd, Hatfield, UK). Apoptosis was quantified in the CD34^+ AML cells using an Accuri C6 flow cytometer (Becton Dickinson, CA, USA). At least 10,000 events were acquired and data were subsequently analysed using FlowJo software (Tree Star Inc., Ashland, OR, USA). All LD50 values (concentration of drug required to kill 50% of cells) were derived from the dose-response curves.",
  "data": [
    {"smiles": "Nc1ccn([C@@H]2O[C@H](CO)[C@@H](O)C2(F)F)c(=O)n1", "note": "[gemcitabine, reference compound]", "values": [
      {"measurement": "mean LD50", "result": 3.1, "unit": "µM"}
    ]}
  ]
}
